Measured values published in patent US12065436B2, “Cardiac sarcomere inhibitors” (Cytokinetics, Inc., priority 2018, dated 2024).

Biological target: bovine cardiac myofibrils (full-length cardiac myosin ATPase in the native sarcomere) (Bos taurus (Bovine), UniProt Q9BE39)
Assay: Skinned bovine cardiac myofibril ATPase assay (PK/LDH-coupled)
Assay type: biochemical
Conditions: Ca2+ activating to 75% of maximal rate; for CDMF75 IC15: concentration giving 15% inhibition; for IC50: read-out: CDMF75 IC50
Procedure: To evaluate the effect of compounds on the ATPase activity of full-length cardiac myosin in the context of the native sarcomere, skinned myofibril assays were performed. Bovine cardiac myofibrils were obtained by homogenizing bovine cardiac left ventricular tissue in the presence of a detergent such as triton X-100. Such treatment removes membranes and a majority of the soluble cytoplasmic proteins but leaves intact the cardiac sarcomeric acto-myosin apparatus. Myofibril preparations retain the ability to hydrolyze ATP in an Ca^2+ regulated manner. ATPase activities of such myofibril preparations in the presence and absence of compounds were assayed at Ca^2+ concentrations activating to a defined fraction of the maximal rate (i.e., 25%, 75%). Small molecule agents were assessed for their ability to inhibit the steady-state ATPase activity of bovine cardiac myofibrils using pyruvate kinase and lactate dehydrogenase (PK/LDH)-coupled enzyme system. This assay regenerates myosin-produced ADP into ATP by oxidizing NADH, producing an absorbance change at 340 nm. Prior to testing small molecule agents, the bovine cardiac myofibrils were assessed for their calcium responsiveness and the calcium concentration that achieves either a 50% (pCa50) or 75% (pCa75) activation of the myofibril system was chosen as the final condition for assessing the inhibitory activity of the small molecule agents. All enzymatic activity was measured in a buffered solution containing 12 mM PIPES (piperazine-N,N′-bis(2-ethanesulfonic acid), 2 mM magnesium chloride at pH 6.8 (PM 12 buffer). Final assay conditions were 1 mg/mL of bovine cardiac myofibrils, 4 U/mL pyruvate kinase, 6 U/mL lactate dehydrogenase, 50 μM ATP, 0.1 mg/mL BSA (bovine serum albumin), 10 ppm antifoam, 1 mM DTT, 0.5 mM NADH, 1.5 mM PEP, 0.6 mM EGTA, and an amount of CaCl2) sufficient to achieve either 50% or 75% activation of the myofibril ATPase activity.

bovine cardiac myofibrils (full-length cardiac myosin ATPase in the native sarcomere), sequence (Q9BE39 whole entry): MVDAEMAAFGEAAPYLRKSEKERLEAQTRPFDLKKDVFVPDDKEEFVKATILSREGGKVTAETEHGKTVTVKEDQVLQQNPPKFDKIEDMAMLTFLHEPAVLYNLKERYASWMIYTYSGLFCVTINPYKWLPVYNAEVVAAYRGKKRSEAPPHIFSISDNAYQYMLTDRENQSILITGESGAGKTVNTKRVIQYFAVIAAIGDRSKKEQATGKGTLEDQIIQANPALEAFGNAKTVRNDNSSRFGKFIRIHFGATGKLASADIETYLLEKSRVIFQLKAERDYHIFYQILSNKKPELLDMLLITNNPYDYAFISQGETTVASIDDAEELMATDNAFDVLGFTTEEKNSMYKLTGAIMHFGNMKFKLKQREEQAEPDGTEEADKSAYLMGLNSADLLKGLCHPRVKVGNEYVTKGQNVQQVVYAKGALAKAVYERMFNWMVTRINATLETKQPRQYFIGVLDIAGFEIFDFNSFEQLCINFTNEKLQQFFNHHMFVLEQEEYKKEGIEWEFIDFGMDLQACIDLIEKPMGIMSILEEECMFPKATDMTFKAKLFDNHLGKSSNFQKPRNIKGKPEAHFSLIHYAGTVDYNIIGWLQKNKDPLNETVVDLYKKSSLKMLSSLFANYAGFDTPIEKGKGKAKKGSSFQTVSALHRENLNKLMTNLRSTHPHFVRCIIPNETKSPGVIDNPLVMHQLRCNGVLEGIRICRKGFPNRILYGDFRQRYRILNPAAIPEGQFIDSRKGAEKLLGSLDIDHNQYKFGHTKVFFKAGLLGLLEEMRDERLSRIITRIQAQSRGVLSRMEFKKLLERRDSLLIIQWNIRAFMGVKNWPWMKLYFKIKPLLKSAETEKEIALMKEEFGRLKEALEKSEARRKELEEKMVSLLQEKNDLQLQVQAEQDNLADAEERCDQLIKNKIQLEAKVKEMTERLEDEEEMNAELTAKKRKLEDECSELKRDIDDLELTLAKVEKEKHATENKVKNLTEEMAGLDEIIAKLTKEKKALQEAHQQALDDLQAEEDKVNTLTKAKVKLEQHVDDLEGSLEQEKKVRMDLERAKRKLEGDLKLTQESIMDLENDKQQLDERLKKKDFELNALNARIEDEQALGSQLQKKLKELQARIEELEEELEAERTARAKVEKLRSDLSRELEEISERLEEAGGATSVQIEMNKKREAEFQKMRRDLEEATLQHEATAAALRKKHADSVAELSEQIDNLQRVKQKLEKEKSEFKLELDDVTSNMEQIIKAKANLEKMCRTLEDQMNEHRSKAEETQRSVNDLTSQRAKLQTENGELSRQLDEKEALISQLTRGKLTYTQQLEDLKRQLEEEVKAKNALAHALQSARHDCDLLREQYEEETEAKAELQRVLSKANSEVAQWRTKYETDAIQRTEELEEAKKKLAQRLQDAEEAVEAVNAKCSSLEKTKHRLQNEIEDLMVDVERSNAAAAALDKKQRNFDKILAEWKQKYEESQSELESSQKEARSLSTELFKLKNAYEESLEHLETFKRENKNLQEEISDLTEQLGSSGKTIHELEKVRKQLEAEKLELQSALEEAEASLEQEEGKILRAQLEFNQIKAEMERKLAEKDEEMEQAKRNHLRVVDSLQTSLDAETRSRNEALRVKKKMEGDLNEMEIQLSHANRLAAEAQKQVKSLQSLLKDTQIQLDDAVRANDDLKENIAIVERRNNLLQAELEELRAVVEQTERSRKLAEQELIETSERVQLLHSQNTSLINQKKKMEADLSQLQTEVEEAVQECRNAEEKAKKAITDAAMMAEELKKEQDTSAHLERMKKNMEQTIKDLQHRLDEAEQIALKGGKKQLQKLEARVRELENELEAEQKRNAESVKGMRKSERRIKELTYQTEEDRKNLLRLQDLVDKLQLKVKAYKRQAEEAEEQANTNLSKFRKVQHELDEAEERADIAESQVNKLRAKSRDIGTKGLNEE
bovine cardiac myofibrils (full-length cardiac myosin ATPase in the native sarcomere), sequence (P85100 whole entry partner): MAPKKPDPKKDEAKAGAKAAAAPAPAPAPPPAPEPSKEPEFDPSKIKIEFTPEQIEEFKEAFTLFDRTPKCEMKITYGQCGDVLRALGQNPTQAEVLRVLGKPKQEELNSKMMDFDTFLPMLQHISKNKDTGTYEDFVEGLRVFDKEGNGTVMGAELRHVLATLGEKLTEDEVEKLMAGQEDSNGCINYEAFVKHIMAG
bovine cardiac myofibrils (full-length cardiac myosin ATPase in the native sarcomere), sequence (Q3SZE5 whole entry partner): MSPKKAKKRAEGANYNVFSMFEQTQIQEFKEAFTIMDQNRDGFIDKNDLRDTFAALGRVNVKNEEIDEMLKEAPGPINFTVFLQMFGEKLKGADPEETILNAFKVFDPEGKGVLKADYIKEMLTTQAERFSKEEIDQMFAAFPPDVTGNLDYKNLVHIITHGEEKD

SMILES | CDMF75 IC15 [µM] | IC50 [µM]
Cc1c(C(=O)NC2CCc3cc(-c4noc(C(F)F)n4)ccc32)cnn1C (stereo not shown) [Compound 27, N-(5-(5-(difluoromethyl)-1,2,4-oxadiazol-3-yl)-2,3-dihydro-1H-inden-1-yl)-1,5-dimethyl-1H-pyrazole-4-carboxamide] | 0.8 | 3.3
Cc1nn(C)cc1C(=O)NC1CCc2cc(-c3noc(C(F)F)n3)ccc21 (stereo not shown) [Compound 28, N-(5-(5-(difluoromethyl)-1,2,4-oxadiazol-3-yl)-2,3-dihydro-1H-inden-1-yl)-1,3-dimethyl-1H-pyrazole-4-carboxamide] | 0.8 | 3.4
CCn1nccc1C(=O)NC1CCc2cc(-c3noc(C(F)F)n3)ccc21 (stereo not shown) [Compound 29, N-(5-(5-(difluoromethyl)-1,2,4-oxadiazol-3-yl)-2,3-dihydro-1H-inden-1-yl)-1-ethyl-1H-pyrazole-5-carboxamide] | 1.2 | 5.3
Cc1cc(C(=O)NC2CCc3cc(-c4noc(C(F)F)n4)ccc32)n(C)n1 (stereo not shown) [Compound 30, N-(5-(5-(difluoromethyl)-1,2,4-oxadiazol-3-yl)-2,3-dihydro-1H-inden-1-yl)-1,3-dimethyl-1H-pyrazole-5-carboxamide] | 0.8 | 2.3
Cc1cc(C(=O)N[C@@H]2CCc3cc(-c4noc(C(F)F)n4)ccc32)ccn1 [Compound 32, (R)-N-(5-(5-(difluoromethyl)-1,2,4-oxadiazol-3-yl)-2,3-dihydro-1H-inden-1-yl)-2-methylisonicotinamide] | 0.6 | 2.3
Cc1nc(-c2ccc3c(c2)CCC3NC(=O)c2ccnc(N)c2)no1 (stereo not shown) [Compound 33, 2-amino-N-(5-(5-methyl-1,2,4-oxadiazol-3-yl)-2,3-dihydro-1H-inden-1-yl)isonicotinamide] | 1.3 | 4.3
Cc1cc(C(=O)NC2CCc3cc(-c4noc(C)n4)ccc32)on1 (stereo not shown) [Compound 34, 3-methyl-N-(5-(5-methyl-1,2,4-oxadiazol-3-yl)-2,3-dihydro-1H-inden-1-yl)isoxazole-5-carboxamide] | 2.1 | 8.1
Cn1nccc1C(=O)NC1CCc2cc(-c3noc(C(F)F)n3)ccc21 (stereo not shown) [Compound 35, N-(5-(5-(difluoromethyl)-1,2,4-oxadiazol-3-yl)-2,3-dihydro-1H-inden-1-yl)-1-methyl-1H-pyrazole-5-carboxamide] | 0.5 | 1.6
O=C(NC1CCc2cc(-c3noc(C(F)F)n3)ccc21)c1cnn2c1CCC2 (stereo not shown) [Compound 36, N-(5-(5-(difluoromethyl)-1,2,4-oxadiazol-3-yl)-2,3-dihydro-1H-inden-1-yl)-5,6-dihydro-4H-pyrrolo[1,2-b]pyrazole-3-carboxamide] | 0.9 | 4.7
Cc1cc(C(=O)NC2CCc3cc(-c4noc(C(F)F)n4)ccc32)cnn1 (stereo not shown) [Compound 37, N-(5-(5-(difluoromethyl)-1,2,4-oxadiazol-3-yl)-2,3-dihydro-1H-inden-1-yl)-6-methylpyridazine-4-carboxamide] | 2.1 | 9.7
Cc1nccnc1C(=O)NC1CCc2cc(-c3noc(C(F)F)n3)ccc21 (stereo not shown) [Compound 38, N-(5-(5-(difluoromethyl)-1,2,4-oxadiazol-3-yl)-2,3-dihydro-1H-inden-1-yl)-3-methylpyrazine-2-carboxamide] | 2.2 | 9.5
Cc1ncccc1C(=O)NC1CCc2cc(-c3noc(C(F)F)n3)ccc21 (stereo not shown) [Compound 39, N-(5-(5-(difluoromethyl)-1,2,4-oxadiazol-3-yl)-2,3-dihydro-1H-inden-1-yl)-2-methylnicotinamide] | 31.0 | > 39.2
Cn1cc(C(=O)NC2CCc3cc(-c4noc(C(F)F)n4)ccc32)c(C(F)(F)F)n1 (stereo not shown) [Compound 40, N-(5-(5-(difluoromethyl)-1,2,4-oxadiazol-3-yl)-2,3-dihydro-1H-inden-1-yl)-1-methyl-3-(trifluoromethyl)-1H-pyrazole-4-carboxamide] | 3.9 | 16.2
Cc1cnc(C(=O)NC2CCc3cc(-c4noc(C(F)F)n4)ccc32)c(C)n1 (stereo not shown) [Compound 41, N-(5-(5-(difluoromethyl)-1,2,4-oxadiazol-3-yl)-2,3-dihydro-1H-inden-1-yl)-3,5-dimethylpyrazine-2-carboxamide] | 6.6 | > 39.2
Cc1nc(-c2cnc3c(c2)CCC3NC(=O)c2ccccc2)no1 (stereo not shown) [Compound 42, N-(3-(5-methyl-1,2,4-oxadiazol-3-yl)-6,7-dihydro-5H-cyclopental[b]pyridin-7-yl)benzamide] | 7.2 | 31.6
Cc1nc(-c2ccc3c(c2)CCC3NC(=O)c2ccnc(O)c2)no1 (stereo not shown) [Compound 43, 2-hydroxy-N-(5-(5-methyl-1,2,4-oxadiazol-3-yl)-2,3-dihydro-1H-inden-1-yl)isonicotinamide] | 4.3 | 14.1
Cc1nc(-c2ccc3c(c2)CCC3NC(=O)c2cnn(C)n2)no1 (stereo not shown) [Compound 44, 2-methyl-N-(5-(5-methyl-1,2,4-oxadiazol-3-yl)-2,3-dihydro-1H-inden-1-yl)-2H-1,2,3-triazole-4-carboxamide] | 3.3 | 12.3

Second part, the molecule after the results:

CDMF75 IC15 [µM] | IC50 [µM] | SMILES
2.1 | 7.6 | Cc1nc(-c2ccc3c(c2)CCC3NC(=O)c2cnc(C)n2C)no1 (stereo not shown) [Compound 45, 1,2-dimethyl-N-(5-(5-methyl-1,2,4-oxadiazol-3-yl)-2,3-dihydro-1H-inden-1-yl)-1H-imidazole-5-carboxamide]
1.2 | 4.2 | Cc1nc(-c2ccc3c(c2)CCC3NC(=O)c2cnoc2C)no1 (stereo not shown) [Compound 46, 5-methyl-N-(5-(5-methyl-1,2,4-oxadiazol-3-yl)-2,3-dihydro-1H-inden-1-yl)isoxazole-4-carboxamide]
1.4 | 5 | Cc1cc(C(=O)NC2CCc3cc(-c4noc(C)n4)ccc32)n(C)n1 (stereo not shown) [Compound 47, 1,3-dimethyl-N-(5-(5-methyl-1,2,4-oxadiazol-3-yl)-2,3-dihydro-1H-inden-1-yl)-1H-pyrazole-5-carboxamide]
1.4 | 4.9 | Cc1nc(-c2ccc3c(c2)CC[C@H]3NC(=O)c2cnc(C)o2)no1 [Compound 48, (R)-2-methyl-N-(5-(5-methyl-1,2,4-oxadiazol-3-yl)-2,3-dihydro-1H-inden-1-yl)oxazole-5-carboxamide]
9.8 | > 39.2 | O=C(NC1CCc2cc(-c3noc(C(F)F)n3)ccc21)c1ccn[nH]1 (stereo not shown) [Compound 49, N-(5-(5-(difluoromethyl)-1,2,4-oxadiazol-3-yl)-2,3-dihydro-1H-inden-1-yl)-1H-pyrazole-5-carboxamide]
1.5 | 5.2 | O=C(NC1CCc2cc(-c3noc(C(F)F)n3)ccc21)c1cn[nH]c1 (stereo not shown) [Compound 50, N-(5-(5-(difluoromethyl)-1,2,4-oxadiazol-3-yl)-2,3-dihydro-1H-inden-1-yl)-1H-pyrazole-4-carboxamide]
1.2 | 3.6 | Cc1nc(-c2ccc3c(c2)CCC3NC(=O)c2ocnc2C)no1 (stereo not shown) [Compound 51, 4-methyl-N-(5-(5-methyl-1,2,4-oxadiazol-3-yl)-2,3-dihydro-1H-inden-1-yl)oxazole-5-carboxamide]
1.6 | 4.9 | Cc1nc(-c2ccc3c(c2)CCC3NC(=O)c2ocnc2C2CC2)no1 (stereo not shown) [Compound 52, 4-cyclopropyl-N-(5-(5-methyl-1,2,4-oxadiazol-3-yl)-2,3-dihydro-1H-inden-1-yl)oxazole-5-carboxamide]
2.5 | 8.8 | Cc1nc(-c2ccc3c(c2)CCC3NC(=O)c2oc(C)nc2C)no1 (stereo not shown) [Compound 53, 2,4-dimethyl-N-(5-(5-methyl-1,2,4-oxadiazol-3-yl)-2,3-dihydro-1H-inden-1-yl)oxazole-5-carboxamide]
2.2 | 7.8 | Cc1nc(-c2ccc3c(c2)CCC3NC(=O)c2cnn(C)c2C)no1 (stereo not shown) [Compound 54, 1,5-dimethyl-N-(5-(5-methyl-1,2,4-oxadiazol-3-yl)-2,3-dihydro-1H-inden-1-yl)-1H-pyrazole-4-carboxamide]
2.0 | 6.8 | Cc1nc(-c2ccc3c(c2)CCC3NC(=O)c2cn(C)nc2C)no1 (stereo not shown) [Compound 55, 1,3-dimethyl-N-(5-(5-methyl-1,2,4-oxadiazol-3-yl)-2,3-dihydro-1H-inden-1-yl)-1H-pyrazole-4-carboxamide]
2.5 | 8.5 | CCn1nccc1C(=O)NC1CCc2cc(-c3noc(C)n3)ccc21 (stereo not shown) [Compound 56, 1-ethyl-N-(5-(5-methyl-1,2,4-oxadiazol-3-yl)-2,3-dihydro-1H-inden-1-yl)-1H-pyrazole-5-carboxamide]
